# According to US20240150279A1, “C PRIME AGENTS FOR TREATING METABOLIC DISORDERS” (The University of Toledo, priority 2021, published 2024):
# Tested on: PDX1-BIRC5-Survivin axis
structure (smiles),measurement,value
"CCC(C)(C)C(=O)OC1CC(C)C=C2C=CC(C)C(CCC(O)CC(O)CC(=O)NO)C21 (stereo not shown) [Sim-CONHOH, Simvastatin-NHOH]",activity in the PDX1-BIRC5-Survivin bioassays,active
